Data taken from patent US20190239509A1, “METHOD OF CONTROLLING PLANTS” (SYNGENTA PARTICIPATIONS AG, priority 2016, published 2019).

Experiments:
Assay type in all cases: in vivo
[1] = system: Amaranthus viridis (AMAVI); assay: B2 drilled field trial Brazil, post-emergence, AMAVI; conditions: 100=total damage, 0=no damage; for AMAVI 7DAA Observed: 7 days after application; for AMAVI 30 DAA Observed: 30 days after application
Protocol: (§1) Seeds of a variety of test species were used in drilled field trials to look at the control of important weed species present in corn crops as well as the effect on soybean (a volunteer crop in corn). Trials were carried out in Brazil in the summer season.
(§2) Plot size was 10-12 m^2, and two replicates were carried out per treatment. Plants were treated post-emergence at the 4 leaf stage. Fungicides and insecticides were used as necessary for plant health. The test was evaluated at 7 and 30 days after application (Amaranthus viridis (AMAVI), Bidens pilosa (BIDPI), Euphorbia heterophylla (EPPHL)) and 9 and 37 days after application (Brachiaria plantaginea (BRAPL) and soybean (Glycine max GLXMA) with 100=total damage to plant and 0=no damage to plant.
(§3) Expected results were calculated using the Colby Formula.

Bidens pilosa (BIDPI) = assay: B2 drilled field trial Brazil, post-emergence, BIDPI; conditions: 100=total damage, 0=no damage; for BIDPI 7DAA Observed: 7 days after application; for BIDPI 30 DAA Observed: 30 days after application
Protocol: as §1, §2, §3

[2] = system: Euphorbia heterophylla (EPPHL); assay: B2 drilled field trial Brazil, post-emergence, EPPHL; conditions: 100=total damage, 0=no damage; for EPPHL 7DAA Observed: 7 days after application; for EPPHL 30 DAA Observed: 30 days after application
Protocol: as §1, §2, §3

[3] = system: Brachiaria plantaginea (BRAPL); assay: B2 drilled field trial Brazil, post-emergence, BRAPL; conditions: 100=total damage, 0=no damage; for BRAPL 9DAA Observed: 9 days after application; for BRAPL 37 DAA Observed: 37 days after application
Protocol: as §1, §2, §3

[4] = system: soybean (Glycine max GLXMA); assay: B2 drilled field trial Brazil, post-emergence, soybean; conditions: 100=total damage, 0=no damage; for GLXMA 9DAA Observed: 9 days after application; for GLXMA 37 DAA Observed: 37 days after application
Protocol: as §1, §2, §3

[5] = system: Amaranthus retroflexus (AMARE); assay: B3 drilled field trial Brazil, post-emergence, AMARE; conditions: 28 days after application, 100=total damage, 0=no damage
Protocol: (§4) Seeds of a variety of test species were used in drilled field trials to look at the control of important weed species present in corn crops as well as the effect on soybean (a volunteer crop in corn). Trials were carried out in Brazil in the summer season and the second season.
(§5) Plot size was 10-15 m^2, and two replicates were carried out per treatment. Plants were treated post-emergence between the 2 and 4 leaf stage. Species tested were Amaranthus retroflexus (AMARE), Ipomoea grandifolia (IAQGR), Digitaria horizontalis (DIGHO), Bidens pilosa (BIDPI), Eleusine indica (ELEIN), Brachiaria decumbens (BRADC), Centrus echinatus (CCHEC), Euphorbia heterophylla (EPPHL), Brachiaria plantaginea (BRAPL) and Glycine max (GLXMA; soybean). Fungicides and insecticides were used as necessary for plant health. The test was evaluated at 28 days after application with 100=total damage to plant and 0=no damage to plant.
as §3

[6] = system: Ipomoea grandifolia (IAQGR); assay: B3 drilled field trial Brazil, post-emergence, IAQGR; conditions: 28 days after application
Protocol: as §4, §5, §3

[7] = system: Digitaria horizontalis (DIGHO); assay: B3 drilled field trial Brazil, post-emergence, DIGHO; conditions: 28 days after application
Protocol: as §4, §5, §3

CCOC1C(O)N(c2cc(C(C)(C)C)on2)C(=O)N1C (stereo not drawn) [Compound 1.4]
AMAVI 7DAA Observed ([1]; 75 g ai/ha): 10 | AMAVI 30 DAA Observed ([1]; 75 g ai/ha): 13 | AMAVI 7DAA Observed ([1]; 100 g ai/ha): 20 | AMAVI 30 DAA Observed ([1]; 100 g ai/ha): 20 | AMAVI 7DAA Observed ([1]; 150 g ai/ha): 40 | AMAVI 30 DAA Observed ([1]; 150 g ai/ha): 40 | BIDPI 7DAA Observed (Bidens pilosa (BIDPI); 75 g ai/ha): 8 | BIDPI 30 DAA Observed (Bidens pilosa (BIDPI); 75 g ai/ha): 8 | BIDPI 7DAA Observed (Bidens pilosa (BIDPI); 100 g ai/ha): 10 | BIDPI 30 DAA Observed (Bidens pilosa (BIDPI); 100 g ai/ha): 13 | BIDPI 7DAA Observed (Bidens pilosa (BIDPI); 150 g ai/ha): 28 | BIDPI 30 DAA Observed (Bidens pilosa (BIDPI); 150 g ai/ha): 20 | EPPHL 7DAA Observed ([2]; 75 g ai/ha): 25 | EPPHL 30 DAA Observed ([2]; 75 g ai/ha): 18 | EPPHL 7DAA Observed ([2]; 100 g ai/ha): 30 | EPPHL 30 DAA Observed ([2]; 100 g ai/ha): 25 | EPPHL 7DAA Observed ([2]; 150 g ai/ha): 48 | EPPHL 30 DAA Observed ([2]; 150 g ai/ha): 25 | BRAPL 9DAA Observed ([3]; 75 g ai/ha): 18 | BRAPL 37 DAA Observed ([3]; 75 g ai/ha): 0 | BRAPL 9DAA Observed ([3]; 100 g ai/ha): 15 | BRAPL 37 DAA Observed ([3]; 100 g ai/ha): 0 | BRAPL 9DAA Observed ([3]; 150 g ai/ha): 23 | BRAPL 37 DAA Observed ([3]; 150 g ai/ha): 0 | GLXMA 9DAA Observed ([4]; 75 g ai/ha): 63 | GLXMA 37 DAA Observed ([4]; 75 g ai/ha): 45 | GLXMA 9DAA Observed ([4]; 100 g ai/ha): 55 | GLXMA 37 DAA Observed ([4]; 100 g ai/ha): 0 | GLXMA 9DAA Observed ([4]; 150 g ai/ha): 73 | GLXMA 37 DAA Observed ([4]; 150 g ai/ha): 30 | AMARE Second season Observed ([5]; 50 g ai/ha): 12 | AMARE Summer season Observed ([5]; 50 g ai/ha): 73 | AMARE Second season Observed ([5]; 75 g ai/ha): 14 | AMARE Summer season Observed ([5]; 75 g ai/ha): 80 | AMARE Second season Observed ([5]; 100 g ai/ha): 39 | AMARE Summer season Observed ([5]; 100 g ai/ha): 90 | AMARE Second season Observed ([5]; 150 g ai/ha): 52 | AMARE Summer season Observed ([5]; 150 g ai/ha): 100 | Observed damage (100=total damage to plant, 0=no damage) ([6]; Second season, 50 g ai/ha): 0 | Observed damage (100=total damage to plant, 0=no damage) ([6]; Second season, 75 g ai/ha): 3 | Observed damage (100=total damage to plant, 0=no damage) ([6]; Second season, 100 g ai/ha): 36 | Observed damage (100=total damage to plant, 0=no damage) ([6]; Second season, 150 g ai/ha): 69 | Observed damage (100=total damage to plant, 0=no damage) ([6]; Summer season, 50 g ai/ha): 33 | Observed damage (100=total damage to plant, 0=no damage) ([6]; Summer season, 75 g ai/ha): 38 | Observed damage (100=total damage to plant, 0=no damage) ([6]; Summer season, 100 g ai/ha): 68 | Observed damage (100=total damage to plant, 0=no damage) ([6]; Summer season, 150 g ai/ha): 100 | Observed damage (100=total damage to plant, 0=no damage) ([7]; Second season, 50 g ai/ha): 0 | Observed damage (100=total damage to plant, 0=no damage) ([7]; Second season, 75 g ai/ha): 0 | Observed damage (100=total damage to plant, 0=no damage) ([7]; Second season, 100 g ai/ha): 0 | Observed damage (100=total damage to plant, 0=no damage) ([7]; Second season, 150 g ai/ha): 0 | Observed damage (100=total damage to plant, 0=no damage) ([7]; Summer season, 50 g ai/ha): 23
